These results are taken from patent US20210299039A1, “COMPOSITIONS AND METHODS FOR TREATING OCULAR DISEASE BY CONTACT LENS MEDIATED DRUG DELIVERY” (EyeGate Pharmaceuticals, Inc., priority 2020, published 2021).

The conditions of data set [1]: rabbit, in vivo.
Description: Following sterilization, lenses were handled aseptically. […] Control (drug-free) lenses were soaked and then stored (at 4° C.) in sterile isotonic saline until use. Controls were used only for retention and ocular health assessments.
A total of 11 New Zealand White rabbits were used in this study: 2 animals were in the control group and 9 animals in the treatment group. The nictitating membranes of the rabbits were removed and the rabbits allowed to recover for 2 weeks prior to study initiation. For the study, a contact lens was placed on each eye of an animal and a tarsorrhaphy performed by placing a single staple in the corner of the eyelids to aid in retention of the contact lenses. Cage side observations of the animals occurred every 2 hours to monitor lens retention and ocular health. At 2, 4, and 8 hours following lens placement, 3 animals in the treatment group were euthanized, the staple and contact lens from each eye were removed, and ocular health was noted. The following tissues were then isolated: aqueous humor (AH), vitreous humor (VH), retina, choroid, cornea, conjunctiva, and sclera. The aqueous humor was retrieved from each eye using a sterile 30-gauge needle on a 1 mL syringe while the eyes were still intact in the animal. Tissues were transferred to pre-weighed, pre-labeled tubes in a box of dry ice. […]
Data set [2] can be described thus: Drug loading by soaking hydrogel discs in drug solution (weight gain). It counts as physicochemical. Conditions: 48-hour soak, HEMA-based discs with 15% MPMA vs without; FIG. 5. Here is the method: The HEMA-based hydrogels of formulation 5 in Table 1, were made with and without 15% MPMA. Unreacted components were extracted by washing in DI water for at least 3 hours, followed by washing in a 50:50 mixture of reagent alcohol and DI water for at least 3 hours, then washing again in DI water for at least 3 hours. Discs 15 mm in diameter were punched out and dried in a vacuum dessicator for at least 72 hours. The dry discs were weighed to get an initial weight without drug. Discs were then placed in a drug solution for 48 hours on a shaker at 200 rpm. Drug solutions used in this study can be found in Table 2. After 48 hours, the discs were removed from the drug solution, patted with a Kimwipe to remove solution from the surface, and then dried in a vacuum dessicator for at least 48 hours. The dry drug-loaded discs were weighed, and the amount of drug loaded was determined as the drug-loaded disc weight minus the initial weight.

The nature of data set [3]: Drug release into PBS and extraction from HEMA-based hydrogel discs. Conditions: for effect of MPMA on total amount of drug released and extracted: HEMA-based discs with MPMA vs without, FIG. 7; for effect of MPMA on release over time: HEMA-based material with vs without MPMA, FIGS. 10 and 11. Type of data set: physicochemical. Here is the method: At 0.5, 1, 2, 4, 6, and 8 hours the PBS was removed and fresh PBS was added.

Data set [4] is described as follows: In vitro drug release into and across sclera tissue (Franz cell). Type of data set: in vitro ADME, Porcine. Conditions: 4 minutes, 4 hours, 8 hours; HPLC-UV; FIG. 13. From the text:
An experimental setup (shown in FIG. 12) for determining drug release from a soft contact lens hydrogel disc into and across sclera tissue was created using a glass Franz cell. The Franz cell was filled with PBS. A cell strainer (BD Falcon, […] nylon, 23 mm ID) was fitted onto the Franz cell as a framework to hold the sclera and hydrogel disc together. Porcine sclera tissue (21 mm diameter, 1 mm thick) was placed in the cell strainer, the drug-loaded hydrogel disc was placed onto the sclera tissue, and a glass bottle was placed on top of the disc to firmly hold the assembly together in the cell strainer. At 4 minutes, 4 hours, or 8 hours, the sclera tissue was removed and a sample of the PBS from the Franz cell was taken. The sclera tissue was digested using collagenase, and the amount of dexP in the digested sclera tissue and PBS was determined using HPLC-UV.

A short description of data set [5]: dexP release from silicone-based hydrogel discs into PBS. Type of data set: physicochemical. From the text: Silicone-based hydrogels similar to formulation 2 in Table 1, but with only 1% EGDMA, were made with and without 15% MPMA. Unreacted components were extracted as described in Example 4.
Data set [6] in a line: Loss of crosslinked-in dexP during extraction washes (HPLC-UV). It counts as physicochemical. Conditions: formulation 4 hydrogels with MPMA compared to without MPMA; FIG. 4. As for the experimental part:
Hydrogels were placed in deionized (DI) water for 35 minutes at 37° C./200 rpm, followed by 3 times in isopropyl alcohol for 25 minutes each at 37° C./200 rpm, then 2 additional times in DI water for 25 minutes each.

For data set [7] the following is noted: Formulation 3. As for the experimental part: HEMA-based hydrogels were prepared as described in Example 4 using Formulation 3.

For the compound `C[C@@H]1C[C@H]2[C@@H]3CCC4=CC(=O)C=C[C@]4(C)[C@@]3(F)[C@@H](O)C[C@]2(C)[C@@]1(O)C(=O)COP(=O)(O)O` [dexP, dexamethasone phosphate], in data set [1], the “detection in ocular tissues” value is on record as “detected in the tissues of treated animals at each timepoint”; the “drug reaching the back of the eye” value was “drug concentrations observed in the VH, retina, and choroid”. In addition, the “effect of MPMA on amount of drug loaded” value in data set [2] was “significantly increased the amount of drug loaded”. The “effect of MPMA on total amount of drug released and extracted” value (shortened to “effect … of drug released and extracted”) in data set [3] was “significantly greater”. Also, the “amount of dexP in sclera tissue and PBS reservoir” value in data set [4] is “increasing amount of dexP in the sclera tissue and PBS over time”. The “total amount of dexP released” value in data set [5] (silicone-based discs with 15% MPMA vs without, initial soak, release in PBS, FIG. 6A) is recorded as “significantly greater”. Also, the “amount of dexP released after re-loading” value in data set [5] (silicone-based discs with MPMA vs without, re-soaked overnight, FIG. 6B) is on record as “greater amount of dexP release”. In data set [6], the “amount of incorporated dexP removed during water and alcohol washes” value was “very little of the incorporated dexP was removed”.
Consider `Cc1ncc([N+](=O)[O-])n1CCO` [Metronidazole], for which the “effect of MPMA on amount of drug loaded” value in data set [2] is reported as “did not affect loading”. Further, the “total amount of drug released and extracted compared between drugs” value in data set [3] (10 mg/ml soaking solution for metronidazole vs 40 mg/ml for the other drugs) was “lower than for dexP and predP”. Also, in data set [3], the “effect … of drug released and extracted” value is “did not affect the amount released and extracted”; the “effect of MPMA on release over time” value is listed as “very little effect”.
On to `C[C@]12C=CC(=O)C=C1CC[C@@H]1[C@@H]2[C@@H](O)C[C@@]2(C)[C@H]1CC[C@]2(O)C(=O)COP(=O)(O)O` [predP, Prednisolone phosphate], for which the “effect of MPMA on amount of drug loaded” value in data set [2] is “significantly increased the amount of drug loaded”. Also, the “effect … of drug released and extracted” value in data set [3] is “significantly greater”.
For the compound `C[C@@H]1C[C@H]2[C@@H]3CCC4=CC(=O)C=C[C@]4(C)[C@@]3(F)[C@@H](O)C[C@]2(C)[C@@]1(O)C(=O)COP(=O)([O-])[O-].[Na+].[Na+]` [disodium dexP], in data set [7] (7 days soak in 40 mg/ml solution, FIG. 16), the “loading of dexP, disodium form compared to free acid form” value was “decreased loading and release”. In data set [7] (PBS up to 8 hours, FIG. 17), the “release of dexP, disodium form compared to free acid form” value was “decreased loading and release”.
For `NC[C@H]1O[C@H](O[C@H]2[C@H](O)[C@@H](O[C@H]3O[C@H](CO)[C@@H](O)[C@H](N)[C@H]3O)[C@H](N)C[C@@H]2N)[C@H](N)C[C@@H]1O` [Tobramycin], in data set [2], the “effect of MPMA on amount of drug loaded” value is “did not affect loading”. Also, in data set [3], the “effect … of drug released and extracted” value is “significantly decreased the amount of drug released and extracted”; the “effect of MPMA on release over time” value is given as “significantly reduced”.
